This is an account of results in publication PMC6572003 (The Journal of General Physiology, 2019).

Substitutions are numbered along the chain they refer to.

Common to all, as to assay: two-electrode voltage clamp, Xenopus oocytes, current integral
Type in all cases: cell-based
On the technique in general: Two-electrode voltage clamp holds a large cell at a set potential and records current.

The target in experiment [1] is T1, human P2X4 (Homo sapiens, UniProt Q99571).
T1 sequence (Q99571 1-388): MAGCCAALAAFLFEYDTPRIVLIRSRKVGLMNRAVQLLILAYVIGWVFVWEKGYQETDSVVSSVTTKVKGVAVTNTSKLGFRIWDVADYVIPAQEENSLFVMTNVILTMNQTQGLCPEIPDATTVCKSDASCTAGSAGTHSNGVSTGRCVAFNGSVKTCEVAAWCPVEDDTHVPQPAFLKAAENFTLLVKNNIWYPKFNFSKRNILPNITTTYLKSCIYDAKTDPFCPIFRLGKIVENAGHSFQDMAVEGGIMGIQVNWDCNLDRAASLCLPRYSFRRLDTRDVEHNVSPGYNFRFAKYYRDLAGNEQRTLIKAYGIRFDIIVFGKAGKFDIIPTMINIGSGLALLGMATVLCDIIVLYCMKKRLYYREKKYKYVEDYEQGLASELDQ

In experiment [2] the target is T1, human P2X4. The following applies: read-out: % inhibition at 250 μM.
The target of experiment [3] is T1, human P2X4. The source holds these as a separate data set.
Experiment [4] deals with T2, human P2X4 (Homo sapiens, UniProt Q99571, W50A).
T2 sequence (Q99571 1-388 W50A): T1 sequence (Q99571 1-388) with W50A
The settings on record: read-out: % inhibition at 250 μM.

The target in experiment [5] is T3, human P2X4 (Homo sapiens, UniProt Q99571, E51A).
T3 sequence (Q99571 1-388 E51A): T1 sequence (Q99571 1-388) with E51A
The following applies: read-out: % inhibition at 250 μM.

In experiment [6] the target is T4, human P2X4 (Homo sapiens, UniProt Q99571, D331A).
T4 sequence (Q99571 1-388 D331A): T1 sequence (Q99571 1-388) with D331A
The following applies: read-out: % inhibition at 250 μM.

In experiment [7] the target is T5, human P2X4 (Homo sapiens, UniProt Q99571, M336A).
T5 sequence (Q99571 1-388 M336A): T1 sequence (Q99571 1-388) with M336A
The following applies: read-out: % inhibition at 250 μM.

With `Nc1ncnc2c1ncn2[C@@H]1O[C@H](COP(=O)(O)OP(=O)(O)OP(=O)(O)O)[C@@H](O)[C@H]1O` [ATP], a half-maximal effect on human P2X4 [1] (EC50) was put at 4.8 ± 1.2 µM.
For the compound `C[C@H](CCC(=O)O)[C@H]1CC[C@H]2[C@@H]3CC[C@@H]4C[C@H](O)CC[C@]4(C)[C@H]3C[C@H](O)[C@]12C` [DCA, deoxycholic acid], at human P2X4 [2], the inhibition – broadly, how much of the control response was suppressed – at 250 µM was found to be 73 ± 2%.
As for `C[C@H](CCC(=O)NCCS(=O)(=O)O)[C@H]1CC[C@H]2[C@@H]3[C@H](O)C[C@@H]4C[C@H](O)CC[C@]4(C)[C@H]3CC[C@]12C` [t-CDCA, tauro-chenodeoxycholic acid], the inhibition at 250 µM on human P2X4 [2] came out at 25 ± 9%.
With `C[C@H](CCC(=O)NCCS(=O)(=O)O)[C@H]1CC[C@H]2[C@@H]3CC[C@@H]4C[C@H](O)CC[C@]4(C)[C@H]3C[C@H](O)[C@]12C` [t-DCA, tauro-deoxycholic acid], at human P2X4 [3], the IC50 (commonly the midpoint of a concentration-inhibition curve) is roughly 160 µM. In addition, the inhibition at 250 µM at human P2X4 [4] came to 63%; on human P2X4 [5], 74%; at human P2X4 [6], 38%; at human P2X4 [7] it was 22%.
